In ChEMBL document CHEMBL3430912, “GSK Tres Cantos Anti-Kinetoplastid Screening (TCAKS) Data”:

Columns and labels:
Leishmania donovani [1] = experiment: GSK_TCAKS: pIC50 Leishmania donovani Imaging: Amastigotes/Macrophages. Assay plates (384-well) were prepared by adding 250nL of compound to each well. For single shot assay, the final compound concentration was 5 uM. […] Automated image analysis was performed with a script developed on Acapella High Content Imaging and Analysis Software (PerkinElmer). Output: Average number of amastigotes per macrophage cell were reported for each well.; format: functional, organism-based, Homo sapiens; settings: THP-1
[2] = GSK_TCAKS: pIC50 HepG2 human cell line viability assay using luminiscence. […] Seeding density was checked to ensure that new mono-layers were not more than 50% confluent at the time of harvesting. Cell suspension was added to 500 mL of the same medium at a final density of 1.2 * 10^5 cells/mL. This cell suspension was dispensed (25 uL, 3000 cells per well) into 384-well clear-bottom plates using a Multidrop Combi dispenser. Prior to addition of the cell suspension, the screening compounds (250 nL) were pre-dispensed into the plates with an Echo liquid handler. Plates were incubated for 48 h at 37C, 5% CO2. After incubation, plates equilibrated at room temperature for 30 min before proceeding to develop the luminescent signal. The signal developer, CellTiter-Glo Reagent, was allowed to equilibrate at room temperature for 30 min and added to the plates (25uL per well) using a Multidrop Combi dispenser. Plates were left for 10 min at room temperature for stabilization and then read using a ViewLux.; format: toxicity, cell-based
Trypanosoma cruzi [3] = experiment: GSK_TCAKS: pIC50 Trypanosoma cruzi Imaging: Amastigotes/Cell. […] Cells were then washed once with PBS before infection. T. cruzi trypomastigotes, collected at days 5 to 8 after infection from LLC-MK2 parasite infected cultures, were allowed to swim out for 4h at 37C from a centrifuged pellet (2,500 rpm/10 min/room temperature). Trypomastigotes were then collected and counted in a CASY Cell Counter. Trypomastigotes, in supplemented DMEM, were added to H9c2 cultures in a multiplicity of infection of 1 and incubated for 18 h. Cells were washed once with PBS before incubation of the infected H9c2 monolayer with trypsin (Life-Technologies) to detach cells from the flask. Cells were counted in a CASY Cell Counter using a 150 um capillary and their density set at 5 * 10^4 cells per mL in supplemented assay DMEM. Infected H9c2 were dispensed into 384-well poly-lysine coated assay plates at 50uL per well using a Multidrop Combi dispenser. After seeding them, the plates were incubated at 37C, 5% CO2 for 72h. Cultures were then fixed and stained by addition of 50 uL of a solution containing 8% formaldehyde and 4 uM DRAQ5 DNA dye (BioStatus, UK) per well. […] Five images were collected per well for reliable statistical analysis. Automated image analysis was performed with a script developed on Acapella High Content Imaging and Analysis Software (PerkinElmer). Output: number of amastigotes per cell as infection level measurement.; format: functional, organism-based, Rattus norvegicus; settings: H9c2, 4 h
Leishmania donovani [4] = experiment: GSK_TCAKS: pIC50 Leishmania donovani viability assay using fluorescence intensity. Assay plates (1536-well) were prepared by adding 30nL per well of compound. For single shot assay, the final compound concentration was 5uM. […] Briefly, eGFP LdBOB axenic amastigotes were harvested, fixed and counted in a CASY cell counter (Roche-Applied Science). A final concentration of 1.5 * 10^5 cells per well were prepared in amastigote media containing 500 U/mL penicillin/streptomycin (Invitrogen) and 6uL was dispensed to each experimental well using a Multidrop Combi dispenser (Thermo Scientific). 6uL of assay media was dispensed to control columns used as reference for 100% compound response. Following incubation for 72 h at 37C, 5% CO2, 2 uL of resazurin was added to each well at a final concentration of 0.5 mM in phosphate buffered saline (PBS) with IGEPAL (Sigma-Aldrich), 0.05% (v/v).; format: functional, organism-based
[5] = tested on: Trypanosoma brucei brucei; experiment: GSK_TCAKS: pIC50 Trypanosoma brucei viability assay using luminiscence. Assay plates (1536-well) were prepared. T. brucei cultures were harvested and counted in a CASY cell counter. A parasite suspension was prepared at a final concentration of 5 * 10^4 cells/mL in complete HMI9 medium and 6uL was dispensed to all wells containing compounds using a Multidrop Combi dispenser. 6uL of HMI9 media with 0.4% DMSO were dispensed to control columns. Plates were incubated for 24 h at 37C, 5% CO2 then tempered for 10 min at room temperature. ATP content was quantified by adding 4 uL of CellTiter-Glo Reagent (Promega) according to the manufacturer's instructions. Luminescence was measured using a ViewLux.; format: functional, organism-based; settings: Lister 427, CASY
Leishmania donovani [6] = experiment: GSK_TCAKS: pIC50 Leishmania donovani Imaging: THP-1 Host Macrophages. Assay plates (384-well) were prepared by adding 250nL of compound to each well. For single shot assay, the final compound concentration was 5 uM. […] Automated image analysis was performed with a script developed on Acapella High Content Imaging and Analysis Software (PerkinElmer). Output: THP-1 cell count were reported for each well.; format: functional, organism-based, Homo sapiens
Leishmania donovani [7] = experiment: GSK_TCAKS: pIC50 Leishmania donovani Imaging: Infected Macrophages. Assay plates (384-well) were prepared by adding 250nL of compound to each well. For single shot assay, the final compound concentration was 5 uM. […] Automated image analysis was performed with a script developed on Acapella High Content Imaging and Analysis Software (PerkinElmer). Output: Percent of infected macrophage cells were reported for each well.; format: functional, organism-based, Homo sapiens; settings: THP-1
Trypanosoma cruzi [8] = experiment: (§1) GSK_TCAKS: pIC50 Trypanosoma cruzi Imaging: Infected Cells. […] Cells were then washed once with PBS before infection. T. cruzi trypomastigotes, collected at days 5 to 8 after infection from LLC-MK2 parasite infected cultures, were allowed to swim out for 4h at 37C from a centrifuged pellet (2,500 rpm/10 min/room temperature). Trypomastigotes were then collected and counted in a CASY Cell Counter. Trypomastigotes, in supplemented DMEM, were added to H9c2 cultures in a multiplicity of infection of 1 and incubated for 18 h. Cells were washed once with PBS before incubation of the infected H9c2 monolayer with trypsin (Life-Technologies) to detach cells from the flask. Cells were counted in a CASY Cell Counter using a 150 um capillary and their density set at 5 * 10^4 cells per mL in supplemented assay DMEM. Infected H9c2 were dispensed into 384-well poly-lysine coated assay plates at 50uL per well using a Multidrop Combi dispenser. After seeding them, the plates were incubated at 37C, 5% CO2 for 72h. Cultures were then fixed and stained by addition of 50 uL of a solution containing 8% formaldehyde and 4 uM DRAQ5 DNA dye (BioStatus, UK) per well. […] Five images were collected per well for reliable statistical analysis. Automated image analysis was performed with a script developed on Acapella High Content Imaging and Analysis Software (PerkinElmer). Output: percentage of infected cells per well as a second infection marker.; format: functional, organism-based, Rattus norvegicus; settings: H9c2, 4 h
[9] = biological target: Sterol 14-alpha demethylase (Trypanosoma cruzi (strain CL Brener), UniProt Q7Z1V1); experiment: GSK_TCAKS: pIC50 CYP51 from Trypanosoma cruzi.; format: functional
Trypanosoma cruzi [10] = experiment: as §1, with “H2C9” for “Trypanosoma cruzi”, “H9c2 Host Cardiomyocytes.” for “Infected Cells.”, “Number” for “percentage”, “H9c2 Host Cardiomyocytes nuclei to determine drug-related cytotoxicity.” for “infected cells per well as a second infection marker.”; format: functional, organism-based, Rattus norvegicus; settings: H9c2, 4 h
Trypanosoma cruzi [11] = experiment: GSK_TCAKS: pIC50 Trypanosoma cruzi viability assay using beta-GAL activity. This assay was run at single shot at 5uM compound concentration per well. The biological reagents consisted of NIH-3T3 host cells and trypomastigotes parasitic cells; both cell types were set to a 3.3 * 10^5 cells/mL dilution in assay DMEM by means of a CASY cell counter device using a 60um capillary. 6 uL of the mixture were dispensed per well (about 1 * 10^3 host-cells and 1 * 10^3 parasites) with a Multidrop Combi dispenser. […] In all wells, the percentage of DMSO never exceeded 0.5%. Plates incubated for four days at 37C, 5% CO2. The substrate used for the assay fluorescence intensity (FLINT) readout was resorufin-beta-D-galactopiranoside (Sigma-Aldrich) at 5uM per well. It was diluted in PBS supplemented with the soft detergent Igepal (Fluka).; format: functional, organism-based, Mus musculus; settings: Tulahuen, NIH3T3
[12] = tested on: Trypanosoma brucei brucei; experiment: GSK_TCAKS: pIC50 Trypanosoma brucei viability assay using fluorescence intensity. Assay plates (1536-well) were prepared by dispensing 25nL of compound solution per well using an Echo acoustic dispenser (Labcyte).; format: functional, organism-based; settings: Lister 427, 2 h

Sequence of Sterol 14-alpha demethylase (Q7Z1V1 whole entry): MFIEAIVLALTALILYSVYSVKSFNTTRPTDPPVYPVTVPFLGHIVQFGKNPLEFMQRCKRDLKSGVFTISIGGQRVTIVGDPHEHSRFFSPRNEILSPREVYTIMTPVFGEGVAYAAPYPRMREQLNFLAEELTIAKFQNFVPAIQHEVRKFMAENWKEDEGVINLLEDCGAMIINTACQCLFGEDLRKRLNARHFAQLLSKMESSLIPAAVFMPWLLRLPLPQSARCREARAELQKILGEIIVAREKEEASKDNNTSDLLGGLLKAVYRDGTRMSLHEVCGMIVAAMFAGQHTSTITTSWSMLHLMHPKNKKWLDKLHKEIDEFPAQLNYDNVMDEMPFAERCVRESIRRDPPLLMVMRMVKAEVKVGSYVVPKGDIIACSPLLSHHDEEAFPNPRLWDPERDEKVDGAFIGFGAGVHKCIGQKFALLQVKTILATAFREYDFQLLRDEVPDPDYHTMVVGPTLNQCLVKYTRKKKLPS

Row | Compound | IC50 (Leishmania donovani [1]) | IC50 at 48 h [2] | IC50 (Trypanosoma cruzi [3]) | IC50 (Leishmania donovani [4]) | IC50 [5] | IC50 (Leishmania donovani [6]) | IC50 (Leishmania donovani [7]) | IC50 (Trypanosoma cruzi [8]) | IC50 [9] | IC50 (Trypanosoma cruzi [10]) | IC50 (Trypanosoma cruzi [11]) | IC50 [12]
1 | CCCCN(C(=O)c1ccc(NC(=O)C(C)C)cc1)c1ccccc1 | 3.16 µM | > 100 µM | 10 µM | 1 µM | > 39.8 µM | > 50.1 µM | 5.01 µM | > 50.1 µM | 12.6 µM | > 50.1 µM | 20 µM | 15.8 µM
2 | CC(C)c1sc(Cl)nc1C(=O)NCCc1nc(C(=O)Nc2ccc3c(c2)OCO3)cs1 | 2.51 µM | > 100 µM | 0.631 µM | 3.98 µM | 25.1 µM | > 50.1 µM | 5.01 µM | 1 µM | 7.94 µM | > 50.1 µM | 4.47 µM | 25.1 µM
3 | Cc1cc(N2CCc3ccccc3C2)nc(Nc2ccc(S(=O)(=O)N3CCOCC3)cc2)n1 | 1.58 µM | > 100 µM | 25.1 µM | 3.16 µM | > 39.8 µM | 25.1 µM | 5.01 µM | > 50.1 µM | > 100 µM | > 50.1 µM | > 50.1 µM | 31.6 µM
4 | N#Cc1cccc(Nc2nccc(N3CCC(NS(=O)(=O)c4cccc(C#N)c4)CC3)n2)c1 | 6.31 µM | 50.1 µM | 3.16 µM | 0.631 µM | 6.31 µM | > 50.1 µM | 10 µM | 7.94 µM | 7.94 µM | 31.6 µM | 1.58 µM | 6.31 µM
5 | CCC(CC)C(=O)Nc1ccc(-c2nnc(-c3ccc(OC)cc3)o2)cc1 | > 50.1 µM | > 100 µM | 3.98 µM | > 50.1 µM | 0.501 µM | > 50.1 µM | > 50.1 µM | 12.6 µM | 12.6 µM | > 50.1 µM | 5.01 µM | 0.501 µM
6 | Cc1nn2c(=O)c3c([nH]c2c1-c1ccc(Cl)cc1)CCCC3 | > 50.1 µM | > 100 µM | 0.251 µM | 1.26 µM | 0.316 µM | 12.6 µM | > 50.1 µM | 1 µM | > 100 µM | > 50.1 µM | 0.398 µM | 0.158 µM
7 | O=C(N[C@H](CO)c1ccccc1)c1ccc(-c2c[nH]c3nccc(C(F)(F)F)c23)s1 | 15.8 µM | 63.1 µM | 10 µM | 31.6 µM | 0.398 µM | 12.6 µM | 25.1 µM | 10 µM | 6.31 µM | 12.6 µM | 7.94 µM | 0.158 µM
8 | O=C(CCc1ccc(-c2ccccc2)o1)N1CCN(c2ccc(O)cc2)CC1 | 1.26 µM | > 100 µM | 0.794 µM | 10 µM | 39.8 µM | > 50.1 µM | 3.98 µM | 1.26 µM | 2.51 µM | > 50.1 µM | 3.16 µM | 25.1 µM
9 | COc1cnc2ccc(=O)n(CCN3CCC(NC(=O)Cc4ccc(Cl)c(Cl)c4)CC3)c2c1 | 5.01 µM | 63.1 µM | 0.158 µM | 5.01 µM | 0.501 µM | 25.1 µM | 39.8 µM | 0.398 µM | 0.794 µM | 6.31 µM | 0.316 µM | 0.251 µM
10 | O=C(CN1CCN(c2ccccn2)CC1)Nc1cc(S(=O)(=O)N2CCCCCC2)ccc1Cl | 1.26 µM | > 100 µM | 6.31 µM | 7.94 µM | 25.1 µM | 50.1 µM | 6.31 µM | 7.94 µM | 3.16 µM | > 50.1 µM | 10 µM | 12.6 µM
11 | CC(C)COC(=O)Nc1ccc(N2CCC(CNS(=O)(=O)c3ccccc3)CC2)c(F)c1 | 1.26 µM | > 100 µM | 7.94 µM | 3.98 µM | 20 µM | > 50.1 µM | 2 µM | 7.94 µM | 2 µM | > 79.4 µM | 10 µM | 2.51 µM
